Reference: publication PMC9457815 (Molecules, 2022)
Read-outs that look alike come from different tables or passages of the source.

Key:
[1] = target: T1, BuChE (Equus caballus, UniProt P81908); assay: biochemical; parameters: species or system equine; settings: for IC50 / IC50 BuChE: nid = no inhibition detected at 1 mM
T1 construct: purchased Sigma-Aldrich
Experimental: (§1) Pharmacological properties specific to AD were tested first on AChEs (electric eel) according to the kit (ab138871, Abcam) that provides a colorimetric measure of enzyme activity and inhibition. Briefly, the reaction was performed in a final volume of 100 μL in 96-well microplates. […] For this, DMSO-dissolved test compounds were added to a final concentration of 1 mM (1% DMSO) in duplicates. Next, a 5 μL reaction mixture containing equal amounts of acetylthiocholine (20X) and DTNB (20X) was added to each well. Ultimately, the enzyme solution was added to a final concentration of 0.25 U/mL and the absorbance was measured at 412 nm in kinetic mode for 10 min using a microplate reader (Synergy H1, Biotek, Dorval, QC, Canada). The same procedure was utilized for the BuChE (equine, Sigma-Aldrich) activity test, except that the enzyme concentration was 2 U/mL per reaction. DTNB (Bis(3-carboxy-4-nitrophenyl) disulfide, Ellman’s Reagent), acetylthiocholine iodide, and butyrylthiocholine iodide were purchased from Sigma-Aldrich (Oakville, ON, Canada). […] Experiments were performed at least twice. Inhibition was calculated as follows:I = 100 × (1 − Δi/Δe) where Δi is the difference in the absorbance between two time points in the presence of the inhibitor, and Δe is the difference in the absorbance using two time points in presence of DMSO or an appropriate solvent.

[2] = Cytotoxicity assay (Cell-Titer GLO, cellular ATP levels) on Huh7 cells; assay type: cell-based, human; settings: human; Huh7 cells, 72 h, ATP levels
Experimental: (§2) Briefly, 7.5 × 10^3 Huh7 cells/well or 2 × 10^4 THP-1 cells/well were plated in black 96-well plates and incubated at 37 °C for 24 h. […] Each dilution was added to the cell plates to obtain final concentrations of 6.25 µM to 200 µM for alkaloids and DMSO, and 0.39 µM to 50 µM for lycorine. […] The plates were then incubated at 37 °C and 5% CO2 for 72 h. Cell-Titer GLO reagent was added to the plates previously equilibrated to room temperature. The plates were then mixed on an orbital shaker for 2 min and incubated for 10 min at room temperature. The luminescence signal was measured with a microplate spectrophotometer (Synergy H1, Biotek, Dorval, QC, Canada). Viability percentages were obtained by calculating the ratio of the signal corresponding to each alkaloid concentration to the signal of the equimolar DMSO control. All experiments were performed at least twice. Median cytotoxic concentrations (CC50) were calculated using QuestGraph IC50 calculator software (MLA Quest Graph™ IC50 Calculator, AAT Bioquest, Inc., Sunnyvale, CA, USA).

[3] = test system: DENVGFP; assay: Antiviral assay, propagative DENVGFP vector in Huh7 cells, flow cytometry; assay type: cell-based, dengue virus (serotype 2); settings: Dengue virus, Huh-7, 72 h, read-out: EC50 DENV
Experimental: (§3) The plasmid used to obtain the DENVGFP vector (pFK-DVs-G2A) was provided by Ralf Bartenschlager (Heidelberg University, Heidelberg, Germany) and Laurent Chatel-Chaix (Institut National de la Recherche Scientifique, Laval, QC, Canada). The 2 plasmids used to obtain the HIV-1GFP vector were PMD2.G and pNL4-3-GFPΔEnvΔNef. For DENVGFP, viral titer was measured using a plaque assay in Vero cells, as described in [53]. For HIV-1GFP, the viral titer was obtained by measuring the infectivity of serially diluted vectors in CRFK cells, as described in [54].
(§4) Briefly, 7.5 × 10^3 Huh7 cells/well or 2 × 10^4 THP-1 cells/well were plated in 96-well plates at 37 °C for 24 h. […] Each dilution was added to the cell plates to obtain final concentrations of 1.56 µM to 200 µM for alkaloids and matched concentrations of DMSO, and 0.05 µM to 6.4 µM for lycorine or 0.078 µM to 10 µM for raltegravir. Lycorine and raltegravir were used as DENV and HIV-1 inhibitor controls, respectively. DENVGFP and HIV-1GFP were then added at multiplicities of infection (MOIs) of 0.025 and 0.1, respectively. Plates were placed in an incubator at 37 °C and 5% CO2 for 72 h. Afterward, the cells were fixed in 3.7% formaldehyde and the percentage of infection was measured using flow cytometry with an FC500 MPL cytometer (Beckman Coulter, Inc., Brea, CA, USA). Data analysis was performed using Flowjo software (BD, FlowJo LLC, Ashland, OR, USA). All experiments were performed at least twice. EC50 values were calculated using QuestGraph IC50 calculator software (MLA Quest Graph™ IC50 Calculator. AAT Bioquest, Inc. https://www.aatbio.com/tools/ic50-calculator (accessed on 1 July 2022)).

[4] = target: T2, AChE (Electrophorus electricus, UniProt O42275); assay: biochemical; assay type: biochemical, electric eel; settings: substrate ATCh; nid = no inhibition detected at 1 mM
T2 construct: purchased Abcam ab138871
Experimental: as §1

[5] = test system: HIV-1GFP; assay: microbe, parasite or virus in culture; assay type: cell-based, human immunodeficiency virus (HIV)-1; settings: for EC50: Human immunodeficiency virus 1, THP-1, 72 h, read-out: EC50 HIV-1; for inhibition at 200 µM: Human immunodeficiency virus 1, THP-1, read-out: inhibition of HIV-1 infection
Experimental: as §3, §4

[6] = Cytotoxicity assay (Cell-Titer GLO, cellular ATP levels) on THP-1 cells; assay type: cell-based, human; settings: human; THP-1 cells, 72 h, ATP levels
Experimental: as §2

[7] = test system: Huh7 cells; assay: Cytotoxicity assay (Cell-Titer GLO, cellular ATP levels) on Huh7 cells; assay type: cell-based, human; settings: for cell death, Huh7 cells: 200 µM; for cytotoxicity to Huh7 cells: tested concentrations (lycorine: below 50 µM)
Experimental: as §2

[8] = target: T3, POP (Homo sapiens, UniProt P48147); assay: Prolyloligopeptidase (POP) inhibition assay, fluorogenic kit; assay type: biochemical; settings: substrate DPP (Ala-Pro-AMC dipeptide), nid = no inhibition detected at 1 mM
T3 construct: purchased BPS Bioscience Inc
T3 sequence (P48147 1-710): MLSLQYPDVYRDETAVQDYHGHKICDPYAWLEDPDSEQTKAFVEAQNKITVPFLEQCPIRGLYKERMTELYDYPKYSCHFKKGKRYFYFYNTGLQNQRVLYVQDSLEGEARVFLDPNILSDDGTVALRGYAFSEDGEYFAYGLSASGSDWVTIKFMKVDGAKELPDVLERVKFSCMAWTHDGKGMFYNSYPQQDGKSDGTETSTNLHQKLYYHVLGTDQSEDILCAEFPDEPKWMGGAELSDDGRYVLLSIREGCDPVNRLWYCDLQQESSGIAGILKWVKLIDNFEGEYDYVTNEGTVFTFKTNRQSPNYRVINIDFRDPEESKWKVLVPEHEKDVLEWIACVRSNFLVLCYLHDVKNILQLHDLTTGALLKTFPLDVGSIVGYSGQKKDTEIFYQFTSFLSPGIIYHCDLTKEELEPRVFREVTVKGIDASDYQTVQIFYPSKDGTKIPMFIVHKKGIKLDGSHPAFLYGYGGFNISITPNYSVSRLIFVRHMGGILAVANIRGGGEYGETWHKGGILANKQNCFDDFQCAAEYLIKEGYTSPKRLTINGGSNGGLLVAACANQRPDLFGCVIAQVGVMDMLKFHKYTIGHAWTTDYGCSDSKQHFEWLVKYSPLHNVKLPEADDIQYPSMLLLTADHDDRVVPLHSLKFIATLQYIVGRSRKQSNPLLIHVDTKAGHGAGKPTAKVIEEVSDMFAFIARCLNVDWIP
Experimental: POP enzyme activity was measured using the Fluorogenic POP Assay Kit (BPS Bioscience Inc., San Diego, CA, USA). The reaction was carried out in a final volume of 50 μL in a low-binding NUNC microtiter plate. All compounds were tested at a final concentration of 250 μM in duplicate. A DPP substrate was added to a final concentration of 2.5 μM and the POP enzyme solution was subsequently added to a final concentration of 1 ng/μL. Optical densities at 440 nm were recorded using a microplate reader (Synergy H1, Biotek, QC, Canada).

[9] = test system: THP-1 cells; assay: Cytotoxicity assay (Cell-Titer GLO, cellular ATP levels) on THP-1 cells; assay type: cell-based, human
Experimental: as §2

[10] = 100 µM, killing a majority of the cells
[11] = 200 µM, killing a majority of the cells
[12] = tested concentrations (lycorine: below 50 µM)

T2 sequence (O42275 24-633): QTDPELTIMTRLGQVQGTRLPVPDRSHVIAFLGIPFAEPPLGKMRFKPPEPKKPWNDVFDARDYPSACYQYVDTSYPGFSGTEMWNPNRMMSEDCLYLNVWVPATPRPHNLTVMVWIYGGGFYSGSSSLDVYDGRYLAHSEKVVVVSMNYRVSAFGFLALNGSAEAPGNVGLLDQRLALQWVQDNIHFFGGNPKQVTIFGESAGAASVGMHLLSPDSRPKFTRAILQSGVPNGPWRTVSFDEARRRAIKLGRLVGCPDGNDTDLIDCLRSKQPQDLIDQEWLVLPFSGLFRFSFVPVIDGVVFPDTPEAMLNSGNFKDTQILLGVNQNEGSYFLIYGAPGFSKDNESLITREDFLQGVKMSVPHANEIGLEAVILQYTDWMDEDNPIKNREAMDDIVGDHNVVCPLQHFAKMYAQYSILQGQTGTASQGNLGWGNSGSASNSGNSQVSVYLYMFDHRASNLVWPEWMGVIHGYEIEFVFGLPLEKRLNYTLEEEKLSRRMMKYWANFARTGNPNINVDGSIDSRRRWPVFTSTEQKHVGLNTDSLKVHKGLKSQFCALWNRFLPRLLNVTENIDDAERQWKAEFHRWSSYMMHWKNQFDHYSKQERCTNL
T1 sequence (P81908 whole entry): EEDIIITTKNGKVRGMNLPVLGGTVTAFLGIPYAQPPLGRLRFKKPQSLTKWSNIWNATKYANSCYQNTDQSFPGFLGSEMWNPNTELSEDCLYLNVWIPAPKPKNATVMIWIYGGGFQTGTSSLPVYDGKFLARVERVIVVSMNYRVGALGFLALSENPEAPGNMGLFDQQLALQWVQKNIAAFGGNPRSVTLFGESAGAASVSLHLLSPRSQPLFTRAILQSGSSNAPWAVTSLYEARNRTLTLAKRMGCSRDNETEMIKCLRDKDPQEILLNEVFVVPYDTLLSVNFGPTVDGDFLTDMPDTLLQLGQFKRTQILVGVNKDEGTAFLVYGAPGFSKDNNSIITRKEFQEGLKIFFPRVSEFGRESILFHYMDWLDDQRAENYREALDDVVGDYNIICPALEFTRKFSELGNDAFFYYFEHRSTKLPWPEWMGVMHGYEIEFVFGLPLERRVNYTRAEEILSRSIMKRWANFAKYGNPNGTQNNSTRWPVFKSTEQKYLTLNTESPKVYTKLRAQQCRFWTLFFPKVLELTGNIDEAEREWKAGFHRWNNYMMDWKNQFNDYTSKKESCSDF

Structure (SMILES)	IC50 ([1]; substrate ATCh)	IC50 ([1]; substrate BuTCh)	CC50 at 72 h [2]	EC50 [3]	IC50 AChE [4]	EC50 [5]	CC50 at 72 h [6]	IC50 BuChE ([1]; substrate ATCh)	IC50 BuChE ([1]; substrate BuTCh)	cell death, Huh7 cells [7]	IC50 ([8]; read-out: IC50 POP)	inhibition at 200 µM [5]	cytotoxicity to THP-1 cells [9, 10]	loss of BuChE inhibition compared with norbelladine [1]	IC50 [4]	cytotoxicity to THP-1 cells [9, 11]	cytotoxicity to Huh7 cells [7]	IC50 ([8]; IC50 POP)	cytotoxicity to THP-1 cells [9, 12]	inhibition at 2000 µM ([1]; read-out: BuChE inhibition (positive control))
COc1ccc(CNCCc2ccc(O)cc2)cc1O [4′-O-methylnorbelladine]	42.9 µM	91.6 µM	> 200 µM	40.5 µM	nid	108 µM	> 200 µM	–	–	–	–	–	–	–	–	–	–	–	–	–
COc1ccc(/C=N/CCc2ccc(O)cc2)cc1O [4′-O-methylnorcraugsodine]	–	–	> 200 µM	> 200 µM	nid	> 200 µM	> 200 µM	nid	nid	–	–	–	–	–	–	–	–	–	–	–
Oc1ccc(CC/N=C/c2ccc(O)c(O)c2)cc1 [Norcraugsodine]	–	–	122 µM	37.7 µM	nid	55.5 µM	27 µM	nid	nid	50%	567 µM	94 to 99%	highly cytotoxic	–	–	–	–	–	–	–
Cc1nnc(C(=O)NC(C)(C)c2nc(C(=O)NCc3ccc(F)cc3)c(O)c(=O)n2C)o1 [Raltegravir, reference compound]	–	–	–	–	–	0.098 µM	> 10 µM	–	–	–	–	–	–	–	–	–	–	–	–	–
COc1ccc(CNCCc2ccc(O)cc2)cc1OC [3′,4′-O-dimethylnorbelladine]	87.8 µM	87.9 µM	131 µM	27.5 µM	–	98.3 µM	> 200 µM	–	–	50%	–	–	–	3 fold	320 µM	–	–	–	–	–
COc1ccc(/C=N/CCc2ccc(O)cc2)cc1OC [3′,4′-O-dimethylnorcraugsodine]	–	–	> 200 µM	> 200 µM	nid	> 200 µM	> 200 µM	nid	nid	–	–	–	–	–	–	–	–	–	–	–
Oc1ccc(CCNCc2ccc(O)c(O)c2)cc1 [Norbelladine]	33.3 µM	26.1 µM	72.6 µM	50.4 µM	nid	50.5 µM	82.2 µM	–	–	50%	–	94 to 99%	–	–	–	highly cytotoxic	–	–	–	–
COc1cc(/C=N/CCc2ccc(O)cc2)ccc1O [3′-O-methylnorcraugsodine]	–	–	> 200 µM	176 µM	nid	107 µM	> 200 µM	nid	nid	–	–	94 to 99%	–	–	–	–	weakly cytotoxic	1150 µM	–	–
O=Cc1ccc(O)c(O)c1 [3,4-DHBA, 3,4-dihydroxybenzaldehyde]	–	–	173 µM	24.1 µM	nid	51.5 µM	31.7 µM	nid	nid	50%	–	94 to 99%	highly cytotoxic	–	–	–	–	–	–	–
O[C@H]1[C@H]2c3cc4c(cc3CN3CCC(=C[C@@H]1O)[C@H]23)OCO4 [Lycorine, reference compound]	–	–	17.4 µM	0.09 µM	–	–	10.7 µM	–	–	–	–	–	–	–	–	–	cytotoxic	–	cytotoxic	–
CCN(C)C(=O)Oc1cccc([C@H](C)N(C)C)c1 [rivastigamine, Rivastigmine, reference compound]	–	–	–	–	–	–	–	–	–	–	–	–	–	–	–	–	–	–	–	100%
NCCc1ccc(O)cc1 [Tyramine]	–	–	> 200 µM	> 200 µM	nid	> 200 µM	> 200 µM	nid	nid	–	–	–	–	–	–	–	not cytotoxic	–	not cytotoxic	–
COc1cc(CNCCc2ccc(O)cc2)ccc1O [3′-O-methylnorbelladine]	40.2 µM	58.9 µM	> 200 µM	44.9 µM	nid	135 µM	99 µM	–	–	–	–	–	–	–	–	highly cytotoxic	–	1230 µM	–	–
